In patent US20130131075A1, “NEW COMPOUNDS” (Boehringer Ingelheim International GmbH, priority 2009, published 2013):

Target: T1, cynomolgus BK1-receptor (Macaca fascicularis, UniProt Q3BCU0)
T1 construct: expressed in transfected cells; host or cells: CHO cells (homogenate)
T1 sequence (Q3BCU0 1-352): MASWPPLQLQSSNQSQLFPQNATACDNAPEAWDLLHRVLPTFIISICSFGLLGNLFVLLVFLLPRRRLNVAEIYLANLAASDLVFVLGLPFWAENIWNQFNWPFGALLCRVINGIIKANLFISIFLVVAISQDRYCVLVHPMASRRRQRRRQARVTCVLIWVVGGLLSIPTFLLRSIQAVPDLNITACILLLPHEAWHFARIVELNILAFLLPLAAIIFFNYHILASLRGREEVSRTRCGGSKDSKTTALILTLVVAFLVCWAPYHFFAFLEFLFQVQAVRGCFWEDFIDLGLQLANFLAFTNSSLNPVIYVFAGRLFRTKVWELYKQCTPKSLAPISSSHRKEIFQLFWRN
Test: cynoBK1-receptor binding assay
Settings: CHO cells expressing cynomolgus BK1-receptor, radioligand kallidine (DesArg10,Leu9); for inhibition at 10 µM: at 10 μgmol/L
Experimental: Description of the Method of Binding the cynoBK1-Receptor
CHO cells that express the cynomolgus BK1-receptor are cultivated in “HAM'S F-12 Medium”. The medium is removed from confluent cultures, the cells are washed with PBS buffer, scraped off or detached using Versene and isolated by centrifuging. Then the cells are homogenised in suspension, the homogenate is centrifuged and resuspended. After the protein content has been determined 200 μl of the homogenate (50 to 250 μg protein/assay) are incubated for 60-180 minutes at ambient temperature with 0.5 to 5.0 nM kallidine (DesArg10,Leu9), [3,4-Prolyl-3,43H(N)] and increasing concentrations of the test substance in a total volume of 250 μl. The incubation is stopped by rapid filtration through GF/B glass fibre filters that have been pre-treated with polyethyleneimine (0.3%). The radioactivity bound to the protein is measured with a TopCount NXT. The radioactivity bound in the presence of 1.0 μM kallidine (DesArg10) is defined as non-specific binding. The concentration binding curve may be analysed using computer-aided non-linear curve fitting to determine the corresponding Ki value for the test substance.
Test results of the cynoBK1-receptor binding assay: […]

Row | SMILES | inhibition at 10 µM | Ki
1 | Cn1cc(C(=O)N[C@@]2(C(=O)NCc3ccc(Nc4ccccc4C(F)(F)F)cc3)CCOC2)nn1 [(88)] | 80% | –
2 | CC(NC(=O)C1(NC(=O)c2cncnc2)CC1)c1ncc(Nc2ccc(F)cc2C#N)cc1F (stereo not shown) [(212)] | – | 8 nM
3 | COc1cncc(C(=O)N[C@@]2(C(=O)NCc3ccc(Nc4ccccc4C(F)(F)F)cc3)CCOC2)c1 [(92)] | 110% | 62 nM
4 | O=C(N[C@@]1(C(=O)NCc2ccc(Nc3ccccc3C(F)(F)F)cc2)CCOC1)c1cnccn1 [(96)] | 78% | –
5 | Cc1nc(N)sc1C(=O)NC1(C(=O)NCc2ccc(Nc3ccc(F)cc3C(F)(F)F)cn2)CC1 [(186)] | 82% | –
6 | Cc1cc(Nc2ccc(F)cc2C(F)(F)F)cnc1CNC(=O)C1(NC(=O)c2cncnc2)CC1 [(306)] | – | 2 nM
7 | Nc1cc(C(=O)NC2(C(=O)NCc3ccc(Nc4ccc(F)cc4C(F)(F)F)cn3)CC2)on1 [(150)] | 105% | 37 nM
8 | Nc1cncc(C(=O)N[C@@]2(C(=O)NCc3ccc(Nc4ccc(F)cc4C(F)(F)F)cn3)CCOC2)c1 [(157)] | 96% | 56 nM
9 | O=C(NC1(C(=O)NCc2ccc(Nc3ccc(F)cc3C(F)(F)F)cn2)CC1)c1cnc2[nH]ccc2c1 [(384)] | – | 21 nM
10 | O=C(NC1(C(=O)NCc2ccc(Nc3cc(F)ccc3C(F)(F)F)cn2)CC1)c1cncnc1 [(42)] | 89% | –
11 | O=C(N[C@@]1(C(=O)NCc2ccc(Nc3ccccc3C(F)(F)F)cc2)CCOC1)C1CCOCC1 [(65)] | 76% | –
12 | O=C(NC1(C(=O)NCc2ccc(Nc3ccccc3C(F)(F)F)cn2)CCCCC1)c1cncnc1 [(191)] | 56% | –
13 | Cc1ncc(C(=O)N[C@@]2(C(=O)NCc3ccc(Nc4c(F)cccc4C(F)(F)F)cc3F)CCOC2)cn1 [(291)] | – | 40 nM
14 | Cc1ncc(C(=O)N[C@@]2(C(=O)NCc3ncc(Nc4ccc(F)cc4C(F)(F)F)cc3C)CCOC2)cn1 [(387)] | – | 10 nM
15 | Cc1cccc(C(F)(F)F)c1Nc1ccc(CNC(=O)C2(NC(=O)c3cncnc3)CC2)nc1 [(49)] | 103% | 365 nM
16 | CN(c1ccc(CNC(=O)C2(NC(=O)c3cncnc3)CC2)cc1)c1ccccc1Cl [(110)] | 33% | –
17 | Nc1cncc(C(=O)N[C@@]2(C(=O)NCc3ccc(Nc4ccccc4C(F)(F)F)cc3)CCOC2)c1 [(105)] | 113% | 20 nM
18 | COc1ncc(C(=O)NC2(C(=O)NCc3ccc(Nc4ccc(F)cc4C(F)(F)F)cn3)CC2)cn1 [(233)] | – | 10 nM
19 | Cn1ccc(C(=O)NC2(C(=O)NCc3ccc(Nc4ccc(Cl)cc4C(F)(F)F)cn3)CC2)cc1=O [(148)] | 96% | –
20 | CNc1ncc(C(=O)N[C@@]2(C(=O)NCc3ccc(Nc4ccc(Cl)cc4C(F)(F)F)cc3)CCOC2)cn1 [(323)] | – | 69 nM
21 | Nc1cncc(C(=O)N[C@@]2(C(=O)NCc3ccc(Nc4ccc(F)cc4C(F)(F)F)cc3)CCOC2)c1 [(214)] | – | 13 nM

Row | SMILES | inhibition at 10 µM | Ki
22 | COc1ncc(C(=O)NC2(C(=O)NCc3ccc(Nc4ccc(Br)cc4C(F)(F)F)cn3)CC2)cn1 [(138)] | 107% | 6.7 nM
23 | CC(NC(=O)C1(NC(=O)c2cncnc2)CC1)c1ccc(Nc2c(F)cccc2C(F)(F)F)cn1 (stereo not shown) [(123)] | 110% | 8.3 nM
24 | COc1cccc(C(=O)N[C@@]2(C(=O)NCc3ccc(Nc4ccccc4C(F)(F)F)cc3)CCOC2)c1 [(100)] | 103% | –
25 | O=C(NC1(C(=O)NCc2ccc(Nc3ccc(F)cc3C(F)(F)F)cn2)CC1)c1cncc(O)c1 [(243)] | – | 28 nM
26 | N#Cc1ccc(C(=O)NC2(C(=O)NCc3ccc(Nc4ccc(F)cc4C(F)(F)F)cn3)CC2)cn1 [(256)] | – | 72 nM
27 | CNc1ncc(C(=O)N[C@@]2(C(=O)NCc3ccc(Nc4ccc(F)cc4C(F)(F)F)cn3)CCOC2)cn1 [(304)] | – | 135 nM
28 | O=C(O)c1ccc(Nc2ccc(CNC(=O)C3(NC(=O)c4cncnc4)CC3)nc2)c(C(F)(F)F)c1 [(195)] | 42% | > 500 nM
29 | COc1ncc(C(=O)NC2(C(=O)NCc3ncc(Nc4c(F)cccc4C(F)(F)F)cc3F)CC2)cn1 [(129)] | 107% | 11 nM
30 | Nc1cncc(C(=O)NC2(C(=O)NCc3ncc(Nc4ccc(F)cc4C(F)(F)F)cc3Cl)CC2)c1 [(218)] | – | 3.7 nM
31 | CCN(c1ccccc1)c1ccc(CNC(=O)C2(NC(=O)c3cncnc3)CC2)cc1 [(111)] | 20% | –
32 | Cc1cc(Nc2ccccc2C(F)(F)F)cnc1CNC(=O)[C@]1(NC(=O)c2cncc(N)c2)CCOC1 [(359)] | – | 125 nM
33 | CNc1cncc(C(=O)N[C@@]2(C(=O)NCc3ncc(Nc4ccc(F)cc4C(F)(F)F)cc3F)CCOC2)c1 [(260)] | – | 43 nM
34 | CCCNc1ccc(C(=O)NC2(C(=O)NCc3ccc(Nc4ccc(Cl)cc4C(F)(F)F)cn3)CC2)cn1 [(330)] | – | 35 nM
35 | CCCNc1ncc(C(=O)NC2(C(=O)NCc3ccc(Nc4ccc(Cl)cc4C(F)(F)F)cn3)CC2)cn1 [(380)] | – | 6.5 nM
36 | Cc1ncc(C(=O)NC2(C(=O)NCc3ncc(Nc4ccccc4C(F)(F)F)cc3C)CC2)cn1 [(374)] | – | 5.5 nM
37 | O=C(NC1(C(=O)NCc2ncc(Nc3ccc(F)cc3C(F)(F)F)cc2F)CC1)c1cncnc1 [(151)] | 107% | 1.8 nM
38 | O=C(NC1(C(=O)NCc2ccc(Nc3ccc(F)cc3C(F)(F)F)cc2)CC1)c1ccno1 [(31)] | 112% | 13 nM
39 | CC(=O)Nc1ccc(C(=O)NC2(C(=O)NCc3ccc(Nc4ccc(F)cc4C(F)(F)F)cn3)CC2)cn1 [(251)] | – | 14 nM
40 | O=C(N[C@@]1(C(=O)NCc2ccc(Nc3ccccc3C(F)(F)F)cc2)CCOC1)c1ccc(F)nc1 [(107)] | 95% | –
41 | O=C(N[C@@]1(C(=O)NCc2ccc(Nc3ccccc3C(F)(F)F)cc2)CCOC1)c1ccoc1 [(93)] | 84% | –
42 | Cc1cc(Nc2ccc(Cl)cc2C(F)(F)F)cnc1CNC(=O)C1(NC(=O)c2cncc(N)c2)CC1 [(361)] | – | 10 nM

Row | SMILES | inhibition at 10 µM | Ki
43 | Nc1cccc(C(=O)N[C@@]2(C(=O)NCc3ccc(Nc4ccccc4C(F)(F)F)cc3)CCOC2)n1 [(72)] | 89% | 416 nM
44 | COc1cncc(C(=O)NC2(C(=O)NCc3ccc(Nc4ccc(F)cc4C(F)(F)F)cn3)CC2)c1 [(376)] | – | 61 nM
45 | O=C(NC1(C(=O)NCc2ccc(Nc3ccc(Cl)cc3C(F)(F)F)cn2)CC1)c1ccnc(F)c1 [(355)] | – | 433 nM
46 | N#Cc1ccccc1Nc1cnc(CNC(=O)C2(NC(=O)c3cncnc3)CC2)c(F)c1 [(295)] | – | 31 nM
47 | O=C(NC1(C(=O)NCc2ccc(Nc3ccccc3C(F)(F)F)cc2)CC1)c1cccnc1 [(11)] | 99% | –
48 | Cn1ccnc1C(=O)NC1(C(=O)NCc2ccc(Nc3ccccc3C(F)(F)F)cc2)CC1 [(18)] | 67% | –
49 | CC(=O)Nc1cncc(C(=O)NC2(C(=O)NCc3ccc(Nc4ccc(Cl)cc4C(F)(F)F)cn3)CC2)c1 [(275)] | – | 405 nM
50 | O=C(NC1(C(=O)NCc2ncc(Nc3c(F)cccc3C(F)(F)F)cc2F)CC1)c1ccnnc1 [(128)] | 103% | 84 nM
51 | O=C(N[C@@]1(C(=O)NCc2ccc(Nc3ccccc3C(F)(F)F)cc2)CCOC1)c1cccnn1 [(74)] | 56% | –
52 | O=C(NC1(C(=O)NCc2ccc(Nc3cccc(Cl)c3Cl)cc2)CC1)c1cncnc1 [(1)] | 54% | –
53 | COc1cncc(C(=O)NC2(C(=O)NCc3ccc(Nc4ccc(Br)cc4C(F)(F)F)cn3)CC2)c1 [(316)] | – | 57 nM
54 | O=C(NC1(C(=O)NCc2ccc(Nc3ccc(Cl)cc3C(F)(F)F)cn2)CC1)c1cc(O)nc(O)n1 [(208)] | – | 6.8 nM
55 | O=C(NC1(C(=O)NCc2ccc(Nc3ccc(Br)cc3C(F)(F)F)cn2)CC1)c1ccnnc1 [(174)] | 99% | –
56 | O=C(N[C@@]1(C(=O)NCc2ccc(Nc3ccccc3C(F)(F)F)cc2)CCOC1)c1ccnnc1 [(64)] | 109% | 98 nM
57 | CC(NC(=O)[C@]1(NC(=O)c2cncnc2)CCOC1)c1ccc(Nc2ccc(Cl)cc2C(F)(F)F)cn1 (stereo partly shown) [(163)] | 87% | 288 nM
58 | O=C(N[C@@]1(C(=O)NCc2ncc(Nc3ccc(Cl)cc3C(F)(F)F)cc2F)CCOC1)c1cncc(O)c1 [(331)] | – | 66 nM
59 | O=C(N[C@@]1(C(=O)NCc2ncc(Nc3ccc(Cl)cc3C(F)(F)F)cc2Cl)CCOC1)c1cncc(O)c1 [(286)] | – | 36 nM
60 | O=C(NC1(C(=O)NCc2ccc(Nc3ccc(Br)cc3C(F)(F)F)cn2)CC1)c1ccc(O)nc1 [(234)] | – | 105 nM
61 | Nc1ccc(C(=O)NC2(C(=O)NCc3ccc(Nc4ccc(Br)cc4C(F)(F)F)cn3)CC2)cn1 [(173)] | 105% | 2.7 nM
62 | CCc1ncc(C(=O)NC2(C(=O)NCc3ccc(Nc4ccc(Cl)cc4C(F)(F)F)cn3)CC2)cn1 [(371)] | – | 6.1 nM
63 | CCNc1ncc(C(=O)NC2(C(=O)NCc3ccc(Nc4ccc(F)cc4C(F)(F)F)cn3)CC2)cn1 [(247)] | – | 3.9 nM
